From patent US4138496A, “SY-1 substance” (Kaken Chemical Co., Ltd., priority 1977, dated 1979)
Values after ≈ are worked out from the molar mass of the structure shown.

Experiments:
Mycobacterium phlei = experiment: Minimum inhibitory concentration; details: Mycolicibacterium phlei, read-out: Minimum inhibitory concentration
From the text: (§1) In the Table, N indicates Nutrient agar medium, GN Glycerine nutrient medium and PS Potato-sucrose agar medium.
GN: 4% glycerol nutrient agar

Stability = details: Na salt
[1] = test system: Staphylococcus epidermidis; experiment: Minimum inhibitory concentration; details: read-out: Minimum inhibitory concentration
Proteus vulgaris = experiment: Minimum inhibitory concentration; details: read-out: Minimum inhibitory concentration
Piricularia oryzae = experiment: microbe, parasite or virus in culture; format: cell-based; details: read-out: Minimum inhibitory concentration
Bacillus subtilis = experiment: Minimum inhibitory concentration; details: read-out: Minimum inhibitory concentration
Mycobacterium avium = experiment: Minimum inhibitory concentration; details: read-out: Minimum inhibitory concentration
From the text: as §1
GN: 4% glycerol nutrient agar

Psendomonas aeruginosa = experiment: Minimum inhibitory concentration; details: read-out: Minimum inhibitory concentration
Mycobacterium smegmatis = experiment: Minimum inhibitory concentration; details: Mycolicibacterium smegmatis, read-out: Minimum inhibitory concentration
From the text: as §1
GN: 4% glycerol nutrient agar

[2] = Toxicity (LD50), mice, orally; details: mouse, in vivo, po
Escherichia coli = experiment: Minimum inhibitory concentration; details: read-out: Minimum inhibitory concentration
Bacillus megaterium = experiment: Minimum inhibitory concentration; details: Priestia megaterium, read-out: Minimum inhibitory concentration
Staphylococcus aureus = experiment: Minimum inhibitory concentration; details: read-out: Minimum inhibitory concentration
Micrococcus luteus = experiment: Minimum inhibitory concentration; details: read-out: Minimum inhibitory concentration
From the text: as §1

Alternaria kikuchiana = experiment: Minimum inhibitory concentration; format: cell-based; details: PS: potato-sucrose agar, Na salt
Micrococcus flavus = experiment: Minimum inhibitory concentration; details: read-out: Minimum inhibitory concentration
Klebsiella pneumoniae = experiment: Minimum inhibitory concentration; details: read-out: Minimum inhibitory concentration
Bacillus circulans = experiment: Minimum inhibitory concentration; details: Paenibacillus illinoisensis, read-out: Minimum inhibitory concentration

For CCC(C(=O)O)C1CCC(C)C(C(C)C(O)C(C)C(=O)C(CC)C2OC3(C=CCC4(CCC(C)(C5CCC(O)(CC)C(C)O5)O4)O3)C(C)CC2C)O1 (stereo not shown) [SY-1 substance], the MIC (Mycobacterium phlei) was greater than 100 µg/mL, the Stability (Stability; pH 7-9) was “stable in pH 7-9” and the Stability (Stability; pH lower than 6) was “unstable in pH lower than 6”. The MIC [1] was 50 µg/mL (≈ 68 µM), the MIC (Proteus vulgaris) was greater than 100 µg/mL and the MIC (Piricularia oryzae) was greater than 100 µg/mL. The “Solubility in organic solvents” value (Solubility; alcohols, acetates, chloroform, ether, carbon tetrachloride, benzene and n-hexane, Na salt) was “soluble”, the “Solubility in various organic solvents” value (Solubility; general statement for isolation by solvent extraction) was “soluble in various organic solvents” and the Solubility in water (Solubility; water, Na salt) was “insoluble in water”. It also gave an MIC (Bacillus subtilis) of 100 µg/mL (≈ 136 µM), an MIC (Mycobacterium avium) greater than 100 µg/mL and an MIC (Psendomonas aeruginosa) greater than 100 µg/mL. For the same compound, the MIC (Mycobacterium smegmatis) was greater than 100 µg/mL, the LD50 [2] was 51 mg/kg and the MIC (Escherichia coli) was greater than 100 µg/mL. It also gave an MIC (Bacillus megaterium) of 50 µg/mL (≈ 68 µM), an MIC (Staphylococcus aureus) of 100 µg/mL (≈ 136 µM) and an MIC (Micrococcus luteus) of 100 µg/mL (≈ 136 µM). For the same compound, the MIC (Alternaria kikuchiana) was greater than 100 µg/mL, the MIC (Micrococcus flavus) was 100 µg/mL (≈ 136 µM) and the MIC (Klebsiella pneumoniae) was greater than 100 µg/mL. It also gave an MIC (Bacillus circulans) of 12.5 µg/mL (≈ 17 µM).
